This is an account of results in publication PMC12888869, “A short antimicrobial peptides family demonstrates efficacy to infection via a multimodal mechanism of action” (Antimicrobial Agents and Chemotherapy, 2025).

Like-named read-outs stand apart in the source and are kept apart here. No end group written: not given here. Bounds are passed on as bounds.

The test system of one experiment is S. aureus. It is filed as cell-based, Staphylococcus aureus. Conditions: 12 h. How it is done:
(§1) The MIC of the peptides against a range of bacteria was determined using the microbroth dilution method with slight modifications ([62]). In brief, the bacteria mentioned above were dispersed in the LB (10^5 CFU mL^−1) and were mixed with gradient concentrations (0.25 μM–16 μM) of SAMPs in the 96-well plate (n = 3). After incubation at 37°C for 16–18 h, the absorbance at 600 nm was measured using a microplate reader (Thermo Fisher Scientific, Multiskan MK3, China). The lowest peptide concentration with no absorbance increase was defined as the MICs. The bacterial solution in the 96-well plate was then transferred to solid LB medium to culture single colonies (n = 3), and the lowest peptide concentration at which almost no colonies survive (less than 0.01%) was defined as the MBCs.
(§2) Based on previous methods, stability was analyzed by monitoring the changes in the antimicrobial efficacy of SAMPs in the presence of salts and serum ([37], [38]). The SAMPs underwent incubation with physiological salts (150 mM NaCl, 4.5 mM KCl) or serum at 37°C for 12 h, followed by measurement of their MICs using the previously outlined method (n = 3).

A further experiment deals with E. coli (ATCC 25922). It is filed as cell-based, Escherichia coli. How it is done: (§3) Two MDR bacteria, MDR-E. coli (LZ-7, drug resistance: compound sulfamethoxazole, ampicillin, gentamicin, ciprofloxacin, levofloxacin) and MDR-A. baumannii (AB-29, drug resistance: 11 kinds of antibiotics including cephalosporins), along with three pathogenic bacteria, E. coli (ATCC 25922), S. aureus (ATCC 6538), and A. baumannii (309-14) were included in the study. A single colony of each bacterium was cultured in Luria-Bertani (LB) medium at 37°C and 180 rpm for 12–16 h until the logarithmic growth phase for use.
as §1

The subject of a further experiment is MDR-E. coli (LZ-7). It is filed as cell-based, Escherichia coli. The method, then:
as §3, §1

Another experiment has as its system MDR-A. baumannii (AB-29). Format: cell-based, Acinetobacter baumannii. How it is done:
as §3, §1

The test system of the next experiment is A. baumannii (309-14). Format: cell-based, Acinetobacter baumannii. How it is done: as §3, §1
For a further experiment, the system named is S. aureus (ATCC 6538). Format: cell-based, Staphylococcus aureus. The method, then:
as §3, §1

Another experiment concerns E. coli. It is filed as cell-based, Escherichia coli. The conditions noted are these: 12 h. How it is done: as §1, §2
A further experiment deals with S. aureus and E. coli. Put plainly: Drug resistance assay (serial passage). Conditions: Colistin E 4 μg mL−1, 30 days. Format: cell-based. How it is done:
The evaluation of drug resistance in SAMPs was performed through MIC value detection ([74]). Resistance was defined as a greater than fourfold increase in the MIC from its initial value. S. aureus and E. coli grown in LB medium supplemented with 0.5 × MIC of each SAMP were repeated for 30 days, followed by determination of MIC values using the same methodology outlined above (n = 3). Meanwhile, Colistin E (4 μg mL^-1) was used as the control group to induce bacterial resistance in the same way.

The subject of experiment [1] is S. aureus, E. coli, A. baumannii, MDR-E. coli, MDR-A. baumannii. Format: cell-based. How it is done: as §3, §1

For FLKLRLWGRLLWKLK-NH2 [GR], the entries for the “MIC after treatment, KCl” value with S. aureus and in the experiment on E. coli were 1 µM and 2 µM, respectively. Further, the entries for the “MIC after treatment, NaCl” value in the experiment on S. aureus and against E. coli were 1 µM and 2 µM, respectively. Further, the “MIC after treatment, Serum” value worked out at 1 µM with S. aureus and 2 µM in the experiment with E. coli. Further, the MBC in the experiment with E. coli (ATCC 25922) (ATCC 25922) turned out to be 8 µM; in the experiment with MDR-E. coli (LZ-7) (MDR- (LZ-7)), 16 µM; against MDR-A. baumannii (AB-29) (MDR- (AB-29)), 2 µM; in the experiment on A. baumannii (309-14) (309-14) it was 2 µM; in the experiment on S. aureus (ATCC 6538) (ATCC 6538) it was 2 µM. The MIC with E. coli (ATCC 25922) (ATCC 25922) was determined as 2 µM; in the experiment with MDR-E. coli (LZ-7) (MDR- (LZ-7)), 16 µM; against MDR-A. baumannii (AB-29) (MDR- (AB-29)), 0.5 µM; with A. baumannii (309-14) (309-14) it was 2 µM; with S. aureus (ATCC 6538) (ATCC 6538), 1 µM.
Colistin E [reference compound]: the MIC in the experiment with E. coli (ATCC 25922) (E. coli, microbroth dilution in LB, 10^5 CFU mL−1, 37°C, 16–18 h, absorbance 600 nm, n = 3) is 256 µM; against MDR-E. coli (LZ-7) (MDR-E. coli, microbroth dilution in LB, 10^5 CFU mL−1, 37°C, 16–18 h, absorbance 600 nm, n = 3), above 256 µM; in the experiment on MDR-A. baumannii (AB-29) (MDR-A. baumannii, microbroth dilution in LB, 10^5 CFU mL−1, 37°C, 16–18 h, absorbance 600 nm, n = 3), 128 µM; with A. baumannii (309-14) (A. baumannii, microbroth dilution in LB, 10^5 CFU mL−1, 37°C, 16–18 h, absorbance 600 nm, n = 3) it was 32 µM; in the experiment on S. aureus (ATCC 6538) (S. aureus, microbroth dilution in LB, 10^5 CFU mL−1, 37°C, 16–18 h, absorbance 600 nm, n = 3) it was above 256 µM. In the experiment with S. aureus and E. coli, the “antimicrobial activity after resistance induction” value was “significant decrease in the antimicrobial activity”.
As to FLKLRLWKKLLWKLK-NH2 [KK], the “MIC after treatment, KCl” value against S. aureus and against E. coli was 0.5 µM each time. Moreover, the “MIC after treatment, NaCl” value against S. aureus and against E. coli was 1 µM throughout. In addition, the “MIC after treatment, Serum” value against S. aureus and in the experiment on E. coli was 0.5 µM each time. Further, the MBC against E. coli (ATCC 25922) (ATCC 25922) stood at 4 µM; against MDR-E. coli (LZ-7) (MDR- (LZ-7)), 8 µM; in the experiment with MDR-A. baumannii (AB-29) (MDR- (AB-29)), 1 µM; in the experiment with A. baumannii (309-14) (309-14), 1 µM; against S. aureus (ATCC 6538) (ATCC 6538), 2 µM. The MIC against E. coli (ATCC 25922) (ATCC 25922) is 0.5 µM; against MDR-E. coli (LZ-7) (MDR- (LZ-7)), 2 µM; against MDR-A. baumannii (AB-29) (MDR- (AB-29)) it was 0.5 µM; against A. baumannii (309-14) (309-14) it was 0.5 µM; in the experiment on S. aureus (ATCC 6538) (ATCC 6538), 0.5 µM.
Take “FLALALIQEAIAKLK-NH2 [FA, Kassporin-KS1, reference compound]”: the “MIC, three prevalent pathogenic bacteria” value in [1] is above 32 µM. For the same substance, the MBC against E. coli (ATCC 25922) (ATCC 25922), against MDR-E. coli (LZ-7) (MDR- (LZ-7)), with MDR-A. baumannii (AB-29) (MDR- (AB-29)), with A. baumannii (309-14) (309-14) and against S. aureus (ATCC 6538) (ATCC 6538) was above 128 µM each time. The MIC against E. coli (ATCC 25922) (ATCC 25922), against MDR-E. coli (LZ-7) (MDR- (LZ-7)), against MDR-A. baumannii (AB-29) (MDR- (AB-29)), against A. baumannii (309-14) (309-14) and against S. aureus (ATCC 6538) (ATCC 6538) was above 32 µM each time.
Consider FLKLRLWKRLLWKLK-NH2 [KR], for which the “MIC after treatment, KCl” value in the experiment on S. aureus and against E. coli was 0.25 µM in each case. In addition, the “MIC after treatment, NaCl” value against S. aureus and against E. coli was 0.25 µM throughout. Also, the “MIC after treatment, Serum” value against S. aureus and in the experiment with E. coli was 0.25 µM in each case. In addition, in experiment [1], the “MIC, common pathogenic bacteria and MDR bacteria” value is 0.25 to 2 µM. Further, the MBC against E. coli (ATCC 25922) (ATCC 25922) amounted to 0.5 µM; against MDR-E. coli (LZ-7) (MDR- (LZ-7)), 4 µM; in the experiment on MDR-A. baumannii (AB-29) (MDR- (AB-29)), 0.25 µM; with A. baumannii (309-14) (309-14), 0.25 µM; with S. aureus (ATCC 6538) (ATCC 6538) it was 0.5 µM. Further, the MIC with E. coli (ATCC 25922) (ATCC 25922) is 0.25 µM; against MDR-E. coli (LZ-7) (MDR- (LZ-7)) it was 1 µM; against MDR-A. baumannii (AB-29) (MDR- (AB-29)), 0.25 µM; against A. baumannii (309-14) (309-14), 0.25 µM; with S. aureus (ATCC 6538) (ATCC 6538), 0.25 µM.
In the case of FLKLRLWRRLLWKLK-NH2 [RR], the “MIC after treatment, KCl” value against S. aureus and with E. coli was 0.5 µM throughout. The “MIC after treatment, NaCl” value stood at 0.5 µM with S. aureus and 1 µM in the experiment with E. coli. In addition, the “MIC after treatment, Serum” value with S. aureus and in the experiment with E. coli was 0.5 µM throughout. Moreover, the MBC is 2 µM against E. coli (ATCC 25922) (ATCC 25922); 8 µM in the experiment on MDR-E. coli (LZ-7) (MDR- (LZ-7)); 2 µM with MDR-A. baumannii (AB-29) (MDR- (AB-29)); 1 µM against A. baumannii (309-14) (309-14); 2 µM against S. aureus (ATCC 6538) (ATCC 6538). For the same substance, the MIC against E. coli (ATCC 25922) (ATCC 25922) worked out at 0.5 µM; in the experiment on MDR-E. coli (LZ-7) (MDR- (LZ-7)) it was 2 µM; with MDR-A. baumannii (AB-29) (MDR- (AB-29)), 0.5 µM; in the experiment on A. baumannii (309-14) (309-14), 1 µM; with S. aureus (ATCC 6538) (ATCC 6538) it was 0.5 µM.
Turning to FLKLRLWRKLLWKLK-NH2 [RK], the “MIC after treatment, KCl” value against S. aureus and in the experiment with E. coli was 0.25 µM throughout. For the same substance, the “MIC after treatment, NaCl” value with S. aureus and in the experiment on E. coli was 0.25 µM in each case. The “MIC after treatment, Serum” value against S. aureus and in the experiment on E. coli was 0.25 µM throughout. For the same substance, the “MIC, common pathogenic bacteria and MDR bacteria” value in experiment [1] was 0.25 to 2 µM. The MBC against E. coli (ATCC 25922) (ATCC 25922) amounted to 1 µM; with MDR-E. coli (LZ-7) (MDR- (LZ-7)) it was 4 µM; with MDR-A. baumannii (AB-29) (MDR- (AB-29)), 0.5 µM; against A. baumannii (309-14) (309-14), 0.5 µM; in the experiment with S. aureus (ATCC 6538) (ATCC 6538), 1 µM. Also, the MIC against E. coli (ATCC 25922) (ATCC 25922) worked out at 0.25 µM; in the experiment on MDR-E. coli (LZ-7) (MDR- (LZ-7)) it was 2 µM; in the experiment with MDR-A. baumannii (AB-29) (MDR- (AB-29)) it was 0.25 µM; with A. baumannii (309-14) (309-14), 0.5 µM; against S. aureus (ATCC 6538) (ATCC 6538), 0.25 µM.
Regarding FLKLRLWGKLLWKLK-NH2 [GK], the “MIC after treatment, KCl” value was determined as 1 µM in the experiment on S. aureus and 2 µM in the experiment on E. coli. In addition, the results for the “MIC after treatment, NaCl” value against S. aureus and in the experiment with E. coli were 1 µM and 2 µM, respectively. The “MIC after treatment, Serum” value turned out to be 1 µM in the experiment with S. aureus and 2 µM with E. coli. Besides, the minimum bactericidal concentration (MBC) was found to be 8 µM with E. coli (ATCC 25922) (ATCC 25922); 16 µM with MDR-E. coli (LZ-7) (MDR- (LZ-7)); 4 µM against MDR-A. baumannii (AB-29) (MDR- (AB-29)); 4 µM in the experiment on A. baumannii (309-14) (309-14); 2 µM against S. aureus (ATCC 6538) (ATCC 6538). In addition, the MIC worked out at 2 µM in the experiment on E. coli (ATCC 25922) (ATCC 25922); 16 µM against MDR-E. coli (LZ-7) (MDR- (LZ-7)); 1 µM with MDR-A. baumannii (AB-29) (MDR- (AB-29)); 2 µM in the experiment on A. baumannii (309-14) (309-14); 1 µM against S. aureus (ATCC 6538) (ATCC 6538).

For orientation: MBC means the smallest concentration meeting the test's criterion for killing. Read a high MBC as weaker bactericidal potency. What is called MIC is the least concentration at which growth counts as inhibited. A low value points to a more susceptible organism.
